Experimental data as given in US10487093B2, “Heterocyclic compounds, in particular 2-oxo-4,4,5,5,6,6,7,7-octahydrobenzoxazole derivatives, and their use as antibacterial compounds” (priority 2016, dated 2019).
Values after ≈ are worked out from the molar mass of the structure shown. Like-named read-outs stand apart in the source and are kept apart here.

Experiments:
Type in all cases: cell-based
[1] = system: Acinetobacter baumannii NCTC 13420; assay: MIC, broth microdilution (CLSI) versus planktonic bacteria; settings: NCTC13420; Acinetobacter baumannii NCTC 13420; 16-20 h; mode of three independent experiments; read-out: MIC, Ab NCTC 13420
[2] = system: Haemophilus influenzae ATCC 49247; assay: as above; settings: ATCC49247; Haemophilus influenzae ATCC 49247; 16-20 h; mode of three independent experiments; read-out: MIC, Hi ATCC 49247
[3] = system: strains of Bacteroides thetaiotaomicron; assay: microbe, parasite or virus in culture
[4] = system: strains of Clostridium perfringens; assay: microbe, parasite or virus in culture
[5] = system: strains of Peptostreptococcus anaerobius; assay: MIC against anaerobes, agar dilution (CLSI), clinical isolates
[6] = system: strains of Parvimonas micra; assay: as above
[7] = system: strains of Peptoniphilus harei; assay: as above; settings: Peptoniphilus harei, read-out: MIC
[8] = system: Clostridium difficile ATCC 700057; assay: MIC against anaerobes, agar dilution (CLSI), reference strain; settings: Clostridioides difficile, ATCC700057, 48 h, read-out: MIC, C. difficile ATCC 700057
[9] = system: strains of Finegoldia magna; assay: MIC against anaerobes, agar dilution (CLSI), clinical isolates; settings: Finegoldia magna, read-out: MIC
[10] = system: strains of Bacteroides fragilis; assay: as above
[11] = system: Bacteroides thetaiotaomicron ATCC 29741; assay: microbe, parasite or virus in culture; settings: ATCC29741, agar dilution, Brucella blood agar, 35° C., 48 h, anaerobic conditions, read-out: MIC, B. thetaiotaomicron ATCC
[12] = system: Bacteroides fragilis ATCC 25285; assay: MIC against anaerobes, agar dilution (CLSI), reference strain; settings: ATCC25285, agar dilution, Brucella blood agar, 35° C., 48 h, anaerobic conditions, read-out: MIC, B. fragilis ATCC 25285
[13] = system: strains of Propionibacterium acnes; assay: MIC against anaerobes, agar dilution (CLSI), clinical isolates; settings: Cutibacterium acnes
[14] = system: strains of Prevotella bivia; assay: as above
[15] = system: strains of Prevotella melaninogenica; assay: as above

`COc1ccc2ncc(=O)n(CCN[C@@H]3CC[C@@H]4[C@@H](C3)OC(=O)N4c3ccc4c(n3)NC(=O)CO4)c2c1` [Compound 21, 1-(2-{[(3aR,6R,7aR)-2-oxo-3-{3-oxo-2H,3H,4H-pyrido[3,2-b][1,4]oxazin-6-yl}-octahydro-1,3-benzoxazol-6-yl]amino}ethyl)-7-methoxy-1,2-dihydroquinoxalin-2-one] gave an MIC [1] of under 1 µg/mL, an MIC [2] of under 1 µg/mL and an MIC ([3]; Bacteroides thetaiotaomicron strain 1, read-out: MIC) of under 1 µg/mL. It also gave an MIC ([3]; Bacteroides thetaiotaomicron strain 2, read-out: MIC) of under 1 µg/mL, an MIC ([3]; Bacteroides thetaiotaomicron strain 3, read-out: MIC) of under 1 µg/mL and an MIC ([3]; Bacteroides thetaiotaomicron strain 4, read-out: MIC) of under 1 µg/mL. It also gave an MIC ([3]; Bacteroides thetaiotaomicron strain 5, read-out: MIC) of under 1 µg/mL, an MIC ([3]; Bacteroides thetaiotaomicron strain 6, read-out: MIC) of under 1 µg/mL and an MIC ([3]; Bacteroides thetaiotaomicron strain 7, read-out: MIC) of under 1 µg/mL. The MIC ([3]; Bacteroides thetaiotaomicron strain 8, read-out: MIC) was under 1 µg/mL, the MIC ([3]; Bacteroides thetaiotaomicron strain 9, read-out: MIC) was under 1 µg/mL and the MIC ([3]; Bacteroides thetaiotaomicron strain 10, read-out: MIC) was under 1 µg/mL. It also gave an MIC ([3]; Bacteroides thetaiotaomicron strain 11, read-out: MIC) of 1 to 4 µg/mL (≈ 1.97 to 7.9 µM), an MIC ([4]; Clostridium perfringens strain 1) of under 1 µg/mL and an MIC ([4]; Clostridium perfringens strain 2) of under 1 µg/mL. It also gave an MIC ([4]; Clostridium perfringens strain 3) of under 1 µg/mL, an MIC ([4]; Clostridium perfringens strain 4) of under 1 µg/mL and an MIC ([4]; Clostridium perfringens strain 5) of under 1 µg/mL. For the same compound, the MIC ([4]; Clostridium perfringens strain 6) was under 1 µg/mL, the MIC ([4]; Clostridium perfringens strain 7) was under 1 µg/mL and the MIC ([4]; Clostridium perfringens strain 8) was under 1 µg/mL. The MIC ([4]; Clostridium perfringens strain 9) was under 1 µg/mL, the MIC ([4]; Clostridium perfringens strain 10) was under 1 µg/mL and the MIC ([4]; Clostridium perfringens strain 11) was under 1 µg/mL. For the same compound, the MIC ([5]; Peptostreptococcus anaerobius strain 1) was under 1 µg/mL, the MIC ([5]; Peptostreptococcus anaerobius strain 2) was under 1 µg/mL and the MIC ([5]; Peptostreptococcus anaerobius strain 3) was under 1 µg/mL. The MIC ([5]; Peptostreptococcus anaerobius strain 4) was under 1 µg/mL, the MIC ([5]; Peptostreptococcus anaerobius strain 5) was under 1 µg/mL and the MIC ([5]; Peptostreptococcus anaerobius strain 6) was under 1 µg/mL. For the same compound, the MIC ([5]; Peptostreptococcus anaerobius strain 7) was under 1 µg/mL, the MIC ([5]; Peptostreptococcus anaerobius strain 8) was under 1 µg/mL and the MIC ([5]; Peptostreptococcus anaerobius strain 9) was under 1 µg/mL. It also gave an MIC ([5]; Peptostreptococcus anaerobius strain 10) of under 1 µg/mL, an MIC ([6]; Parvimonas micra strain 1) of under 1 µg/mL and an MIC ([6]; Parvimonas micra strain 2) of under 1 µg/mL. For the same compound, the MIC ([6]; Parvimonas micra strain 3) was under 1 µg/mL, the MIC ([6]; Parvimonas micra strain 4) was 1 to 4 µg/mL (≈ 1.97 to 7.9 µM) and the MIC ([6]; Parvimonas micra strain 5) was under 1 µg/mL. For the same compound, the MIC ([6]; Parvimonas micra strain 6) was under 1 µg/mL, the MIC ([6]; Parvimonas micra strain 7) was under 1 µg/mL and the MIC ([6]; Parvimonas micra strain 8) was under 1 µg/mL. The MIC ([6]; Parvimonas micra strain 9) was under 1 µg/mL, the MIC ([6]; Parvimonas micra strain 10) was under 1 µg/mL and the MIC ([6]; Parvimonas micra strain 11) was under 1 µg/mL. It also gave an MIC ([6]; Parvimonas micra strain 12) of under 1 µg/mL, an MIC ([7]; Peptoniphilus harei strain 1) of under 1 µg/mL and an MIC ([7]; Peptoniphilus harei strain 2) of under 1 µg/mL. For the same compound, the MIC ([7]; Peptoniphilus harei strain 3) was under 1 µg/mL, the MIC ([7]; Peptoniphilus harei strain 4) was under 1 µg/mL and the MIC ([7]; Peptoniphilus harei strain 5) was under 1 µg/mL. The MIC ([7]; Peptoniphilus harei strain 6) was under 1 µg/mL, the MIC ([7]; Peptoniphilus harei strain 7) was under 1 µg/mL and the MIC ([7]; Peptoniphilus harei strain 8) was under 1 µg/mL. For the same compound, the MIC ([7]; Peptoniphilus harei strain 9) was under 1 µg/mL, the MIC ([7]; Peptoniphilus harei strain 10) was under 1 µg/mL and the MIC ([7]; Peptoniphilus harei strain 11) was under 1 µg/mL. It also gave an MIC ([7]; Peptoniphilus harei strain 12) of under 1 µg/mL, an MIC [8] of under 1 µg/mL and an MIC ([9]; Finegoldia magna strain 1) of under 1 µg/mL. The MIC ([9]; Finegoldia magna strain 2) was under 1 µg/mL, the MIC ([9]; Finegoldia magna strain 3) was under 1 µg/mL and the MIC ([9]; Finegoldia magna strain 4) was under 1 µg/mL. The MIC ([9]; Finegoldia magna strain 5) was under 1 µg/mL, the MIC ([9]; Finegoldia magna strain 6) was under 1 µg/mL and the MIC ([9]; Finegoldia magna strain 7) was under 1 µg/mL. The MIC ([9]; Finegoldia magna strain 8) was under 1 µg/mL, the MIC ([9]; Finegoldia magna strain 9) was under 1 µg/mL and the MIC ([9]; Finegoldia magna strain 10) was under 1 µg/mL. For the same compound, the MIC ([9]; Finegoldia magna strain 11) was under 1 µg/mL, the MIC ([9]; Finegoldia magna strain 12) was under 1 µg/mL and the MIC ([10]; Bacteroides fragilis strain 1) was 1 to 4 µg/mL (≈ 1.97 to 7.9 µM). The MIC ([10]; Bacteroides fragilis strain 2) was under 1 µg/mL, the MIC ([10]; Bacteroides fragilis strain 3) was under 1 µg/mL and the MIC ([10]; Bacteroides fragilis strain 4) was under 1 µg/mL. It also gave an MIC ([10]; Bacteroides fragilis strain 5) of under 1 µg/mL, an MIC ([10]; Bacteroides fragilis strain 6) of under 1 µg/mL and an MIC ([10]; Bacteroides fragilis strain 7) of under 1 µg/mL. For the same compound, the MIC ([10]; Bacteroides fragilis strain 8) was under 1 µg/mL, the MIC ([10]; Bacteroides fragilis strain 9) was under 1 µg/mL and the MIC ([10]; Bacteroides fragilis strain 10) was under 1 µg/mL. It also gave an MIC ([10]; Bacteroides fragilis strain 11) of under 1 µg/mL, an MIC ([10]; Bacteroides fragilis strain 12) of under 1 µg/mL and an MIC [11] of under 1 µg/mL. For the same compound, the MIC [12] was under 1 µg/mL, the MIC ([13]; Propionibacterium acnes strain 1) was under 1 µg/mL and the MIC ([13]; Propionibacterium acnes strain 2) was under 1 µg/mL. It also gave an MIC ([13]; Propionibacterium acnes strain 3) of under 1 µg/mL, an MIC ([13]; Propionibacterium acnes strain 4) of under 1 µg/mL and an MIC ([13]; Propionibacterium acnes strain 5) of under 1 µg/mL. It also gave an MIC ([13]; Propionibacterium acnes strain 6) of under 1 µg/mL, an MIC ([13]; Propionibacterium acnes strain 7) of under 1 µg/mL and an MIC ([13]; Propionibacterium acnes strain 8) of under 1 µg/mL. It also gave an MIC ([13]; Propionibacterium acnes strain 9) of under 1 µg/mL, an MIC ([13]; Propionibacterium acnes strain 10) of under 1 µg/mL and an MIC ([13]; Propionibacterium acnes strain 11) of under 1 µg/mL. It also gave an MIC ([13]; Propionibacterium acnes strain 12) of under 1 µg/mL, an MIC ([14]; Prevotella bivia strain 1) of under 1 µg/mL and an MIC ([14]; Prevotella bivia strain 2) of under 1 µg/mL. The MIC ([14]; Prevotella bivia strain 3) was under 1 µg/mL, the MIC ([14]; Prevotella bivia strain 4) was under 1 µg/mL and the MIC ([14]; Prevotella bivia strain 5) was under 1 µg/mL. The MIC ([14]; Prevotella bivia strain 6) was under 1 µg/mL, the MIC ([14]; Prevotella bivia strain 7) was under 1 µg/mL and the MIC ([14]; Prevotella bivia strain 8) was under 1 µg/mL. The MIC ([14]; Prevotella bivia strain 9) was under 1 µg/mL, the MIC ([14]; Prevotella bivia strain 10) was under 1 µg/mL and the MIC ([15]; Prevotella melaninogenica strain 1) was under 1 µg/mL. It also gave an MIC ([15]; Prevotella melaninogenica strain 2) of under 1 µg/mL, an MIC ([15]; Prevotella melaninogenica strain 3) of under 1 µg/mL and an MIC ([15]; Prevotella melaninogenica strain 4) of under 1 µg/mL. For the same compound, the MIC ([15]; Prevotella melaninogenica strain 5) was under 1 µg/mL, the MIC ([15]; Prevotella melaninogenica strain 6) was under 1 µg/mL and the MIC ([15]; Prevotella melaninogenica strain 7) was under 1 µg/mL. For the same compound, the MIC ([15]; Prevotella melaninogenica strain 8) was under 1 µg/mL, the MIC ([15]; Prevotella melaninogenica strain 9) was under 1 µg/mL and the MIC ([15]; Prevotella melaninogenica strain 10) was under 1 µg/mL. For the same compound, the MIC ([15]; Prevotella melaninogenica strain 11) was under 1 µg/mL.
